Experimental data taken from ChEMBL document CHEMBL3272190, “(2-exo-3-endo)-2-Aryltropane-3-carboxylic esters, a new class of narcotic antagonists” (J Med Chem, 1978).
The source made the active and inactive calls. The calls are words filed in the database; no cut-off is given here.

Experiments:
[1] = system: Mus musculus; assay: Antiwrithing activity in sc dosed mouse assessed as prevention of acetylcholine-induced abdominal constriction response; assay type: functional; conditions: Abdomen
[2] = system: Mus musculus; assay: Induction of hyperactiveness in mouse at 30 mg/kg, sc; assay type: organism-based; parameters: dose 30 mg/kg, route subcutaneous; conditions: in vivo
[3] = system: Rattus norvegicus; assay: Narcotic analgesic activity in sc dosed rat assessed as inhibition of phenazocine-induced effect by D'Amour-Smith tail flick test; assay type: functional
[4] = system: Mus musculus; assay: Antiwrithing activity in sc dosed mouse assessed as prevention of phenyl-p-benzoquinone-induced abdominal constriction response; assay type: functional; conditions: Abdomen
[5] = system: Rattus norvegicus; assay: Analgesic activity in rat assessed as inhibition of intraarterial bradykinin-induced effect up to 100 mg/kg, sc; assay type: functional; parameters: scale not given: the % may be the effect or the level left
[6] = system: Rattus norvegicus; assay: Narcotic analgesic activity in po dosed rat assessed as inhibition of phenazocine-induced effect by D'Amour-Smith tail flick test; assay type: functional
[7] = system: Mus musculus; assay: Induction of hyperactiveness in mouse at 75 mg/kg, sc; assay type: organism-based; parameters: dose 75 mg/kg, route subcutaneous; conditions: in vivo
[8] = system: Rattus norvegicus; assay: Induction of tremors in rat at 120 mg/kg, sc; assay type: organism-based; parameters: dose 120 mg/kg, route subcutaneous; conditions: in vivo
[9] = system: Rattus norvegicus; assay: Induction of hyperactiveness in rat at 120 mg/kg, sc; assay type: organism-based; parameters: dose 120 mg/kg, route subcutaneous; conditions: in vivo
[10] = system: Mus musculus; assay: Induction of depression in mouse at 35 mg/kg, sc; assay type: organism-based; parameters: dose 35 mg/kg, route subcutaneous; conditions: in vivo
[11] = system: Mus musculus; assay: Induction of tremors in mouse at 35 mg/kg, sc; assay type: organism-based; parameters: dose 35 mg/kg, route subcutaneous; conditions: in vivo
[12] = system: Rattus norvegicus; assay: Induction of convulsion in rat at 120 mg/kg, sc; assay type: organism-based; parameters: dose 120 mg/kg, route subcutaneous; conditions: in vivo
[13] = system: Rattus norvegicus; assay: Narcotic analgesic activity in rat assessed as inhibition of phenazocine-induced effect at 80 mg, sc by D'Amour-Smith tail flick test; assay type: functional
[14] = system: Rattus norvegicus; assay: Toxicity in rat assessed as mortality at 160 mg, sc; assay type: organism-based; conditions: in vivo
[15] = system: Mus musculus; assay: Induction of convulsion in mouse at 100 mg/kg, sc; assay type: organism-based; parameters: dose 100 mg/kg, route subcutaneous; conditions: in vivo
[16] = system: Rattus norvegicus; assay: Induction of rigidity in rat at 120 mg/kg, sc; assay type: organism-based; parameters: dose 120 mg/kg, route subcutaneous; conditions: in vivo
[17] = system: Mus musculus; assay: Antiwrithing activity in po dosed mouse assessed as prevention of acetylcholine-induced abdominal constriction response; assay type: functional; conditions: Abdomen
[18] = system: Rattus norvegicus; assay: Analgesic activity in rat assessed as inhibition of intraarterial bradykinin-induced effect at 10 mg/kg, sc; assay type: functional, organism-based; parameters: dose 10 mg/kg
[19] = system: Mus musculus; assay: Induction of depression in mouse at 75 mg/kg, sc; assay type: organism-based; parameters: dose 75 mg/kg, route subcutaneous; conditions: in vivo
[20] = system: Rattus norvegicus; assay: Narcotic analgesic activity in rat assessed as inhibition of phenazocine-induced effect at 10 mg, ip by D'Amour-Smith tail flick test; assay type: functional, organism-based
[21] = system: Rattus norvegicus; assay: Toxicity in rat assessed as mortality at >10 mg, ip; assay type: organism-based; conditions: in vivo

## COC(=O)[C@H]1C[C@H]2CC[C@H]([C@H]1c1ccc(O)cc1)N2C (racemic)
[1]
  ED50: 7.1 mg/kg
[2]
  Activity: Toxic
[3]
  AD50: >80 mg/kg

## COC(=O)[C@@H]1C[C@H]2CC[C@H]([C@H]1c1cccc(O)c1)N2C (racemic)
[1]
  ED50: 24 mg/kg
[4]
  ED50: 100 mg/kg
[5]; route subcutaneous
  Activity: 0%
[3]
  AD50: >80 mg/kg

## COC(=O)[C@H]1C[C@H]2CC[C@H]([C@H]1c1cccc(O)c1)N2C (racemic)
[1]
  ED50: 16 mg/kg
[4]
  ED50: 75 mg/kg
[6]
  AD50: 1.8 mg/kg
[7]
  Activity: Toxic
[8]
  Activity: Toxic
[9]
  Activity: Toxic
[3]
  AD50: 0.37 mg/kg

## COC(=O)[C@H]1C[C@H]2CC[C@H]([C@H]1c1cccc(OC)c1)N2C (racemic)
[1]
  ED50: 19 mg/kg
[10]
  Activity: Toxic
[11]
  Activity: Toxic
[3]
  AD50: >80 mg/kg

## COC(=O)[C@@H]1C[C@H]2CC[C@H]([C@H]1Cc1ccccc1)N2C (racemic)
[1]
  ED50: 5.8 mg/kg
[7]
  Activity: Toxic
[12]
  Activity: Toxic
[3]
  AD50: >80 mg/kg

## COC(=O)[C@H]1C[C@H]2CC[C@H]([C@H]1Cc1ccccc1)N2C (racemic)
[13]
  inhibition (INH): 69%
[14]
  Activity: Toxic
[1]
  ED50: 4.4 mg/kg
[4]
  ED50: 20 mg/kg
[15]
  Activity: Toxic
[12]
  Activity: Toxic
[3]; Rattus norvegicus, Tail, sc
  ED50: 54 mg/kg

## COC(=O)[C@@H]1C[C@H]2CC[C@H]([C@H]1c1cccs1)N2C (racemic)
[1]
  ED50: 12 mg/kg
[16]
  Activity: Toxic
[8]
  Activity: Toxic
[5]
  Activity: Active
[12]
  Activity: Toxic
[3]
  AD50: >80 mg/kg
[17]
  ED50: 35 mg/kg

## COC(=O)[C@@H]1C[C@H]2CC[C@H]([C@H]1c1ccc[nH]1)N2C (racemic)
[1]
  ED50: 13 mg/kg
[18]
  Activity: inactive
[3]
  AD50: 56 mg/kg
[17]
  ED50: 42 mg/kg

## COC(=O)[C@H]1CCN(C)C[C@H]1c1ccccc1 (relative stereo)
[1]
  ED50: 16 mg/kg
[19]
  Activity: Toxic
[20]
  Activity: inactive
[21]
  Activity: Toxic

## COC(=O)[C@H]1CCN(C)C[C@@H]1c1ccccc1 (relative stereo)
[1]
  ED50: 16 mg/kg
[19]
  Activity: Toxic
[20]
  Activity: inactive
[21]
  Activity: Toxic

## COC(=O)[C@@H]1CCN(C)C[C@@H]1c1cccs1 (relative stereo)
[3]
  AD50: 49 mg/kg

## COC(=O)[C@H]1CCN(C)C[C@@H]1c1cccs1 (relative stereo)
[3]
  AD50: 5.6 mg/kg

## CCOC(=O)C1(c2ccccc2)CCN(C)CC1 [MEPERIDINE]
[6]
  AD50: 25 mg/kg
[3]
  AD50: 19 mg/kg

## CN1CC[C@]23c4c5ccc(O)c4O[C@H]2[C@@H](O)C=C[C@H]3[C@H]1C5 [MORPHINE]
[6]
  AD50: 13 mg/kg
[3]
  AD50: 29 mg/kg

## C=CCN1CC[C@]23c4c5ccc(O)c4O[C@H]2[C@@H](O)C=C[C@H]3[C@H]1C5 [NALORPHINE]
[4]
  ED50: 15 mg/kg
[6]
  AD50: 6 mg/kg
[3]
  AD50: 0.1 mg/kg

## C=CCN1CC[C@]23c4c5ccc(O)c4O[C@H]2C(=O)CC[C@@]3(O)[C@H]1C5 [NALOXONE]
[1]
  ED50: 60 mg/kg
[4]
  ED50: 103 mg/kg
[3]
  AD50: 0.008 mg/kg
